Data reported in ChEMBL document CHEMBL1142021, “Aglycon specificity profiling of alpha-glucosidases using synthetic probes” (Bioorg Med Chem Lett, 2005).

Experiments:
[1] = target: T1, Alpha-glucosidase (Aspergillus niger) (UniProt P56526); test: Inhibition of Aspergillus niger glucosidase (of family 31 alpha-glucosidase) at 1 umol/mL
T1 sequence (whole entry): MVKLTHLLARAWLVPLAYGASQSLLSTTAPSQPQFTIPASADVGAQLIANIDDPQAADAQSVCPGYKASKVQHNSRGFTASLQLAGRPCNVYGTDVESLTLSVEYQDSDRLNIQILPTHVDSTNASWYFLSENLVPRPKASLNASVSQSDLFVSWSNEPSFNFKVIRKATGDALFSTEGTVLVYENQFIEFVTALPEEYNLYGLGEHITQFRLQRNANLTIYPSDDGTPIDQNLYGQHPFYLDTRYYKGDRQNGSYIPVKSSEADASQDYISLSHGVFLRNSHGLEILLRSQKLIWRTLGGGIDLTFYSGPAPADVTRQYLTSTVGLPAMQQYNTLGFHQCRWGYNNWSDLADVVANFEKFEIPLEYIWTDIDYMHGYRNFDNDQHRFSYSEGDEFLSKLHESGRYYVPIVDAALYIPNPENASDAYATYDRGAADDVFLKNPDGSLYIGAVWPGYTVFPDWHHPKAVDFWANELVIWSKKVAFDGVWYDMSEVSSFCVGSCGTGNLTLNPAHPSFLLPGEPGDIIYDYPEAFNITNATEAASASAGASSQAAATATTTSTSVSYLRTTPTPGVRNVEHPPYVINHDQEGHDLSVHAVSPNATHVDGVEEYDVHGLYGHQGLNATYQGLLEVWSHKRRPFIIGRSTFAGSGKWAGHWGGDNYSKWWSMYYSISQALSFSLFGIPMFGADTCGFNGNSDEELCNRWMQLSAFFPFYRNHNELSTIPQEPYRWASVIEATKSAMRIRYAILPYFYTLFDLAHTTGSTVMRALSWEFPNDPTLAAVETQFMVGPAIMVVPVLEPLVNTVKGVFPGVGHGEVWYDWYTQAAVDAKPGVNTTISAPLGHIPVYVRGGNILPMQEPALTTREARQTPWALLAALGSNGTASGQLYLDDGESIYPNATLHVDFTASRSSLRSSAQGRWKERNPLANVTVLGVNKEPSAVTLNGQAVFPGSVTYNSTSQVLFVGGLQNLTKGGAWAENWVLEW

[2] = target: T2, Lysosomal alpha-mannosidase (Homo sapiens) (UniProt O00754); test: Inhibition of alpha-Mannosidase at 5 umol/mL
T2 sequence (whole entry): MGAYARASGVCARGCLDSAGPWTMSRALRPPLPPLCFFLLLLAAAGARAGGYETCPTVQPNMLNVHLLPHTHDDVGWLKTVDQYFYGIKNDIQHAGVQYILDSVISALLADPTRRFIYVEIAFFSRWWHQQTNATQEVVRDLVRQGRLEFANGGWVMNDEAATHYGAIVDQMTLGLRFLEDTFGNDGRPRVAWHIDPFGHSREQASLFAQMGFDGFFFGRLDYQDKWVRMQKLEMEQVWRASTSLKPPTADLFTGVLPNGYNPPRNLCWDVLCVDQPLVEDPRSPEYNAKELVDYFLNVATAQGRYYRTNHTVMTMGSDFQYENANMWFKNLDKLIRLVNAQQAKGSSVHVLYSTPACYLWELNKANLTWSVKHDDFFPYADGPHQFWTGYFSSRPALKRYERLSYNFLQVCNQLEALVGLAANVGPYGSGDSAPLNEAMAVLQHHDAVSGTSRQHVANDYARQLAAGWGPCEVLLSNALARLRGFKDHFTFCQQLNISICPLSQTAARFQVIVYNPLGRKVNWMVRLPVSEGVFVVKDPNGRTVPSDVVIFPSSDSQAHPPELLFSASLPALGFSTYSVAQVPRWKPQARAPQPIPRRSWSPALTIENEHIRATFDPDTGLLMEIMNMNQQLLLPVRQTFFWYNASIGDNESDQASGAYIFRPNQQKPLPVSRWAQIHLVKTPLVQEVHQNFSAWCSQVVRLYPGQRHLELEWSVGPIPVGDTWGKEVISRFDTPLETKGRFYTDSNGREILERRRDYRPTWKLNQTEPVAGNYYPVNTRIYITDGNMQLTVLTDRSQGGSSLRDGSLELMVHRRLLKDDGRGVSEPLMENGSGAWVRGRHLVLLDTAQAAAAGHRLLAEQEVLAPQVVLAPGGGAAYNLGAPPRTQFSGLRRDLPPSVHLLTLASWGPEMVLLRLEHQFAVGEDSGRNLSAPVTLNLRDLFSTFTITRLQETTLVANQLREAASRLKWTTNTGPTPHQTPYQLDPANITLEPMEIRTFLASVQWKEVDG

[3] = Inhibition of Flint corn glucosidase (of family 31 alpha-glucosidase) by compound with concentration 1 umol/mI
[4] = target: T3, Beta-galactosidase (Homo sapiens) (UniProt P16278); test: Inhibition of beta-Galactosidase at 5 umol/mL
T3 sequence (whole entry): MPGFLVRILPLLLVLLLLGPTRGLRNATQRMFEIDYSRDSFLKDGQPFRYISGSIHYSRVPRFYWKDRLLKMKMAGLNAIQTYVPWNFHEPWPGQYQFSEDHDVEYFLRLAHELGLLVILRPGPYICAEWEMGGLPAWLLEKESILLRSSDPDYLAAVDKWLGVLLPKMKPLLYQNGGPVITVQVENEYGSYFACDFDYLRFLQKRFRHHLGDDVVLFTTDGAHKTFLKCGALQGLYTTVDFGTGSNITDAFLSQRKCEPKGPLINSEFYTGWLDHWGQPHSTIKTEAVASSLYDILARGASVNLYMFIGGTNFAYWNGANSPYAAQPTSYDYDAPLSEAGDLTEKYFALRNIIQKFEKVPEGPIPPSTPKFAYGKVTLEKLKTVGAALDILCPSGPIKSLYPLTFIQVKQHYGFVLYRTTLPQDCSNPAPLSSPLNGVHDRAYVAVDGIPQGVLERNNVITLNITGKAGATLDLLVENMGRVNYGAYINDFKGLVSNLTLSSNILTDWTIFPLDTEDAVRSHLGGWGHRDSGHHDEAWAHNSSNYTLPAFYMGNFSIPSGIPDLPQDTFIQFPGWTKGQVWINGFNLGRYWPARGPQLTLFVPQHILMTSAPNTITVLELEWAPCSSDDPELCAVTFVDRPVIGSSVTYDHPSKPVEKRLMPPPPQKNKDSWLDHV

[5] = species on record: Homo sapiens; test: Inhibition of alpha-Galactosidase at 5 umol/mL

inhibition [1]	inhibition [2]	inhibition [3]	inhibition [4]	inhibition [5]	SMILES
14%	< 1%	49.2%	< 1%	< 1%	O=C(NCC1OC(CO)C(O)C(O)C1O)c1ccccc1 (centres undefined)
< 1%		18.5%	< 1%	< 1%	O=C(CCCO)NCC1OC(CO)C(O)C(O)C1O (centres undefined)
1.2%	< 1%	5.6%	< 1%	< 1%	CC(C)(C)C(=O)NCC1OC(CO)C(O)C(O)C1O (centres undefined)
< 1%	< 1%	44.6%	< 1%	< 1%	O=C(CCCCCO)NCC1OC(CO)C(O)C(O)C1O (centres undefined)

Continued, compound first:

SMILES	inhibition [1]	inhibition [2]	inhibition [3]	inhibition [4]	inhibition [5]
O=C(CCCCO)NCC1OC(CO)C(O)C(O)C1O (centres undefined)	6.8%	< 1%	37%	< 1%	< 1%
CC(=O)NCC1OC(CO)C(O)C(O)C1O (centres undefined)	23.3%	< 1%	31%	< 1%	< 1%
O=C(CCO)NCC1OC(CO)C(O)C(O)C1O (centres undefined)	2.6%	< 1%	14.1%	< 1%	< 1%
O=C(CO)NCC1OC(CO)C(O)C(O)C1O (centres undefined)	6.6%	< 1%	29.1%	< 1%	< 1%
